Test results as given in US8609695B2, “Methods of treating and/or suppressing insulin resistance” (Endorecherche, Inc., priority 1999, dated 2013).

Legend:
[1] = test system: ovariectomized female rats; assay: 20-day treatment with EM-652.HCl, estradiol and DHEA, body fat (Example 6); format: in vivo, Rattus norvegicus; conditions: OVX rats; for decrease of body fat / decrease of retroperitoneal adipose tissue: 20 days; for Retroperitoneal adipose tissue / Fat %: enriched carbohydrate diet, 20 days oral, EM-652.HCl 0.5, E2 0.5, DHEA 100 mg/rat; for Fat %: DEXA day 21
Description: d) Diet: Certified Rodent feed (Lab Diet #5002, pellets) and tap water were provided ad libitum during the acclimation period. During the study period, the rats received an enriched carbonhydrate diet ad libitum. The enriched diet (diet #3) was composed of (g/100 g): Corn starch, 31.2; Dextrose, 31.2; Casein, 20.0; Corn oil, 6.4; dl-Methionine, 0.3; Vitamin mix, 1.0; AIN-76 mineral mix, 4.9; Fiber, 5.0.
80 rats were assigned to 8 groups of 10 rats for the conduct of the study outlined below:
On day 0 of the study, rats from groups 2 to 8 were ovariectomized, by bilateral flank incision, under Isoflurane-induced anesthesia. Rats from group 1 were sham-operated.
The administration of the test articles or vehicle began on Day 1 (the day following the ovariectomy). The tested compounds were given as suspensions in 0.4% methylcellulose by oral gavage (0.5 ml/gavage) for 20 days.
On day 21 of the study (prior to the necropsy), body composition was determined on whole body skeleton of animals under Isoflurane-induced anesthesia using dual energy x-ray absorptiometry (DEXA; QDR 4500A, Hologic) in order to determine the effect of treatments on fat percentage.
Right and left retroperitoneal adipose tissue were collected and weighed.

[2] = test system: ovariectomized female rats; assay: 34-week treatment with ethynyl estradiol, EM-652.HCl, Raloxifene and DHEA, body fat (Example 7); format: in vivo, rat; conditions: OVX rats, 34 weeks; for Fat %: DEXA; for Fat % / Left retroperitoneal adipose tissue / Right retroperitoneal adipose tissue: EE2 0.1, Raloxifene 1, EM-652.HCl 1 mg/kg oral, DHEA 80 mg/kg topical
Method: The objective of this study was to assess the effect of a combined treatment with EM-652.HCl, and DHEA on body fat and body weight parameters in ovariectomized rats. For this purpose, ovariectomized rats received daily administration of EM-652.HCl (1 mg/kg), and DHEA (80 mg/kg) alone or in combination, for 34 weeks. EM-652.HCl was administered orally while DHEA was applied topically on dorsal skin. One group of animals was orally treated with 17-ethynylestradiol (0.1 mg/kg) and Raloxifene (EM-1105; 1 mg/kg) for comparison.
Ten to twelve week-old female Sprague-Dawley rats (Crl:CD(SD)Br) weighing approximately 235-250 g at start of treatment were used. Eighty rats were randomly distributed between 7 groups of 11 to 12 animals per group as follows: 1) Intact control; 2) OVX control; 3) OVX+EE2 (0.1 mg/kg); 4) OVX+raloxifene (1 mg/kg); 5) OVX+EM-652.HCl (1 mg/kg); 6) OVX+DHEA (80 mg/kg); 7) OVX+EM-652.HCl+DHEA. On day 1 of the study, the animals of the appropriate groups were bilaterally ovariectomized (OVX) under isoflurane anesthesia. EM-652.HCl, raloxifene and EE2 (Steraloids) were administered once daily by oral gavage as suspension in 0.4% methylcellulose (0.5 ml/rat) for 34 weeks while DHEA was applied topically once daily on dorsal skin as a solution in 50% ethanol-50% propylene glycol (0.5 ml/rat) for the same time period. Approximately 24 hours after the last dosing, overnight fasted animals were killed by exsanguination at the abdominal aorta under isoflurane anesthesia. Left and right retroperitoneal adipose tissues were collected and weighed.
After 34 weeks of treatment, individual rats under anesthesia with isoflurane had their whole body skeleton scanned using dual energy x-ray absorptiometry (DEXA; QDR 4500A, Hologic, Waltham, Mass.) and a Regional High Resolution Scan software. The body composition (including fat percentage) was determined.
Data were expressed as the means±SEM.

SMILES | decrease of body fat [1] [%] | decrease of retroperitoneal adipose tissue [1] [%] | Retroperitoneal adipose tissue [1] [g] | Fat % [1] [%] | increment of body fat and retroperitoneal adipose tissue by ovariectomy [2] | Fat % [2] [%] | Left retroperitoneal adipose tissue [2] [g] | Right retroperitoneal adipose tissue [2] [g]
C[C@]12CC[C@H](O)CC1=CC[C@@H]1[C@@H]2CC[C@]2(C)C(=O)CC[C@@H]12 [DHEA, dehydroepiandrosterone] | 59 | 75 | 0.92 ± 0.17 | 7.8 ± 0.8 | prevented | 26.8 ± 2.3 | 1.98 ± 0.17 | 2.16 ± 0.25
CC1=C(c2ccc(O)cc2)[C@H](c2ccc(OCCN3CCCCC3)cc2)Oc2cc(O)ccc21.Cl [EM-652.HCl, (S)-(+)-7-hydroxy-3-(4′-hydroxyphenyl)-4-methyl-2-(4″-(2′″-piperidino-ethoxy)phenyl)-2H-1-benxopyran hydrochloride] | 46 | 59 | 1.52 ± 0.18 | 10.2 ± 1.2 | prevented | 27.7 ± 1.8 | 2.19 ± 0.28 | 2.07 ± 0.18
